Target: GTPase KRas [G12V]/RAF proto-oncogene serine/threonine-protein kinase (Homo sapiens, UniProt P01116, G12V)
Experiment: KRAS/RAF1 Binding Inhibition Assay
Procedure: The test compounds in 2% DMSO (final concentration) at various concentrations were then added to the reaction mixture and incubated for 60 minutes at 4° C.

Row | Structure (SMILES) | IC50
1 | CCc1c(F)ccc2cc(O)cc(-c3ncc4c(N5CCCNC(=O)C5)nc(OCC5(CN6CCC7(CC6)CC(CN6CCN(c8ccc9c(c8)CN([C@H]8CCC(=O)NC8=O)C9=O)CC6)C7)CC5)nc4c3F)c12 [US20250092039, Compound 93] | ≤ 0.2 µM
2 | CCc1c(F)ccc2cc(O)cc(-c3ncc4c(N5CCCNC(=O)C5)nc(OCC5(CN6CCC(CN7CCN(c8ccc9c(c8)CN([C@H]8CCC(=O)NC8=O)C9=O)CC7)CC6)CC5)nc4c3F)c12 [US20250092039, Compound 95] | > 0.2 µM
